Values joined by “and” are separate entries in the source; they are usually repeats but may differ in a detail not shown here. Identical values can stand only once. Like-named read-outs stand apart in the source and are kept apart here. No end group written: not given here.
Experiments:
CD8+ T cells = test system: CD8+ T cells; parameters: species or system transgenic HLA-A24 mice; conditions: mouse, in vivo
[1] = test system: memory CD8^+ T cells within PBMCs; format: cell-based, human
tetramer^+ CD8^+ T cells [2] = test: Tetramer staining of IAV- or IBV-specific CD8^+ T cell lines established in vitro from healthy adult PBMC; format: cell-based, human; conditions: for tetramer^+ of CD8^+ T cells, median: n=11
Source text: Conversely, the universal A2/PB1413 epitope within the IBV-specific T cell lines was immunodominant (0.3%; detected in 8/11 donors) over the IBV-specific A2/BHA543 (0.11%; detected in 10/11 donors) and A2/BNS1266 epitopes (0.01%) (FIG. 4c).

human lung CD8^+ T cells = test: Ex vivo tetramer detection in human lung samples from deceased organ donors; format: cell-based; conditions: for epitope-specific CD8^+ T cells detected within human lung CD8^+ T cells: n=3 lung donors
Source text: As human memory CD8^+ T cells also reside outside the circulation, a rare set of human lung samples from deceased organ donors (n=3) were used to assess the presence of universal A2/PB1413^+CD8^+ T cells at the site of infection. CD8^+ T cells specific for A2/M158 and A2/PB1413, but not A2/BHA543 were detected within human lung CD8^+ T cells (2/3 donors for either specificity, FIG. 3f). […] Although based on a limited number of donors, this analysis indicates the presence of universal A2/PB1413^+ tissue-resident memory CD8^+ T cell pools in the human lung.

CD8^+ T cells [3] = test system: CD8^+ T cells
HLA-A*02:01 [4] = target: T1, HLA-A*02:01 (Homo sapiens, UniProt P04439, D140Y/D185E/D98H/E176V/E277Q/G131W/G231S/I119V/I121R/I166T/I218V/L300P/L318F/N151K/N90K/P208A/P217A/Q86G/Q94H/R138H/R169H/T345S); conditions: reference 34; cited from earlier work
tetramer^+ CD8^+ T cells [5] = format: cell-based, human
CD8^+ T cells [6] = format: cell-based, human
tetramer^+CD8^+ T cells = format: cell-based, human
CD8^+ T cells [7] = test: Recall responses in HHD-A2 mice primed with B/Malaysia and challenged with B/Phuket; format: in vivo
Source text: To further verify the immunogenicity of these epitopes in recall responses, HHD-A2 mice were primed i.n. with B/Malaysia, infected with the heterologous strain B/Phuket 6 weeks later and then assessed CD8^+ T cells against the main epitopes A2/BHA543-551 and A2/BNS1266-274 in the spleen on d8 after challenge.

CD8^+ T cells [8] = format: cell-based, human; remark: listed apart in the source
CD8^+ T cells [9] = test: In vitro screening and validation in HLA-A*02:01-expressing human PBMCs, CD8^+ T cell lines, IFNγ/TNF ICS; format: cell-based
Source text: As a next step, the IBV-specific CD8^+ T cell responses towards the 67 LC/MS-identified IBV-peptides in HLA-A*02:01-expressing individuals were dissected. CD8^+ T cell lines specific for each of the 6 peptide pools were established, and then re-stimulated cells with the cognate pool in an IFNγ/TNF ICS assay (FIG. 2f).
To validate these responses independently of the peptide pools, CD8^+ T cell lines were established towards individual immunogenic peptides (FIG. 2i). […] Thus, these thorough in vivo and in vitro analyses identified 5 novel peptides recognized by CD8^+ T cells in complex with the HLA-A*02:01 molecule, with BHA543-551 being immunodominant amongst the peptides tested, in both mice and humans.
Peripheral blood mononuclear cells (PBMC) from healthy A2:01+ donors were cultured in the presence of antigens (10 μM peptide) for 10 days in the presence of IL-2 (10 U/ml). On day 10 PBMCs were stimulated with peptides (1 μM) for 5 hours in the presence of BFA. Cells were surface stained for CD3 and CD8 and intracellularly stained for IFNγ and TNF using the BD cytofix/cytoperm kit according to the manufacturer's instructions (BD Biosciences).
Any pools with positive ICS responses were then dissected to their individual peptides.

HLA-A*02:01 [10] = target: T1, HLA-A*02:01; test: Thermal stability of pHLA-A*02:01 complex (Tm); format: binding
CD8^+ T cells [11] = test system: CD8^+ T cells; parameters: species or system HHD-A2 mice; conditions: mouse, in vivo
CD8+ T Lymphocytes = format: cell-based, human
[12] = test system: A2/PB1413-specific CD8^+ T cells; format: cell-based, human; conditions: n=24
A2/PB1413^+CD8^+ T cells = format: cell-based, human
IBV = test system: IBV; parameters: species or system HHD-A2 mice; conditions: mouse, in vivo
CD8^+ T cells [13] = test system: CD8^+ T cells; parameters: species or system A24 mice; conditions: mouse
[14] = IAV-specific CD8^+ T cell lines
[15] = T cell lines towards individual peptides, n=6

In the case of “AAYEDLRVL (Influenza B virus) [NP392-400]”, the “immunogenicity (induction of IFNγ production in CD8+ T cells after peptide re-stimulation)” value (shortened to “immunogenicity”) (CD8+ T cells) is reported as “immunogenic”.
For “FEDLRVLSA (Influenza A virus) [NP338-345]”, the “memory CD8^+ T cell responses (IFN-γ production after peptide re-stimulation)” value [1] was “robust memory CD8^+ T cell responses”.
For “GILGFVFVL [M158-66, GILGFVFVL, reference compound]”, the “donors with detected tetramer^+ cells” value (tetramer^+ CD8^+ T cells [2]; [14]) was 11 donors, the “tetramer^+ of CD8^+ T cells, median” value (tetramer^+ CD8^+ T cells [2]; [14]) was 3.9% and the “epitope-specific CD8^+ T cells detected within human lung CD8^+ T cells” value (human lung CD8^+ T cells) was 2/3. The EC50 (CD8^+ T cells [3]) was 8.1 nM, the “Tm (temperature required to unfold 50% of the protein) of pHLA-A*02:01 complex” value (HLA-A*02:01 [4]) was 65 °C and the “CD38^+/Ki-67^+ expression of tetramer-positive CD8^+ T cells” value (shortened to “CD38^+/Ki-67^+ expression”) (tetramer^+ CD8^+ T cells [5]) was “increase”. The “increase in frequency of epitope-specific CD8^+ T cells in blood versus healthy donors” value (tetramer^+ CD8^+ T cells [5]) was 4.3 fold and the “individuals with detected epitope-specific CD8^+ T cells” value (“individuals” for short) (tetramer^+ CD8^+ T cells [5]) was 100%.
For GLDNHTILL [HA543-551, GLDNHTILL], the “additional low avidity CD8^+ T cells detected by Q115E staining” value (CD8^+ T cells [6]) was “could be detected”, the “donors with detected tetramer^+ cells” value (tetramer^+ CD8^+ T cells [2]; IBV-specific T cell lines) was 10/11 and the “tetramer^+ of CD8^+ T cells, median” value (tetramer^+ CD8^+ T cells [2]; IBV-specific T cell lines) was 0.11%. The “d14 frequency lower than universal A2/PB1413^+CD8^+ T cells” value (tetramer^+CD8^+ T cells) was 5 fold, the “epitope-specific CD8^+ T cells detected within human lung CD8^+ T cells” value (human lung CD8^+ T cells) was “not” and the “polyfunctional IFNγ^+TNF^+IL-2^+ CD8^+ T cells” value (CD8^+ T cells [7]; primary infection) was 0.14 % of CD8^+ T cells. The “polyfunctional IFNγ^+TNF^+IL-2^+ CD8^+ T cells” value (CD8^+ T cells [7]; secondary infection, p=0.013) was 2.14 % of CD8^+ T cells, the “number of secondary IFNγ^+TNF^+ CD8^+ T cells in the spleen versus primary infection” value (CD8^+ T cells [7]; spleen d8 after B/Phuket challenge, not statistically significant) was roughly 27 fold and the polyfunctionality (CD8^+ T cells [8]) was “inferior”. The “ICS responses in healthy A2:01+ donors” value (CD8^+ T cells [9]; 10 days culture with 10 μM peptide and IL-2, re-stimulation 1 μM) was “detected across multiple donors”, the “CD8^+ T cell response hierarchy of individual peptides” value (CD8^+ T cells [9]; HLA-A*0201^+ donors, dissection of pools into individual peptides) was “immunodominant epitope” and the “CD8^+ T cell response, median” value (CD8^+ T cells [9]; [15]) was 7.35 % of CD8^+ T cells. The donors with response (CD8^+ T cells [9]; [15]) was 6/6, the EC50 (CD8^+ T cells [3]) was 0.78 nM and the “Tm (temperature required to unfold 50% of the protein) of pHLA-A*02:01 complex” value (HLA-A*02:01 [10]) was roughly 72 °C. For the same sequence, the “CD38^+/Ki-67^+ expression” value (tetramer^+ CD8^+ T cells [5]) was “increase”, the “increase in numbers of epitope-specific CD8^+ T cells versus healthy donors” value (tetramer^+ CD8^+ T cells [5]) was 2.2 fold and the “individuals” value (tetramer^+ CD8^+ T cells [5]) was 75%. For the same sequence, the “CD8+ T cell responses (IFNγ and TNF production)” value (CD8^+ T cells [11]) was “CD8+ T cell responses were targeted”, the “CD8^+ T cell response, mean” value (CD8^+ T cells [11]) was 5 % of CD8^+ T cells and the “CD8^+ T cell responses at the site of infection” value (CD8^+ T cells [11]) was “targeted”.
In the case of “IYFSPIRVTF (Influenza B virus) [NP164-173]”, the “immunogenicity” value (CD8+ T cells) is reported as “immunogenic”.
In the case of “IYHPGGNKL (Influenza B virus) [PB2245-253]”, the “immunogenicity” value (CD8+ T cells) is reported as “immunogenic”.
For “KYVLFHTSL (Influenza B virus) [PA457-465]”, the “CD8+ T cell responses (IFNγ) after single peptide re-stimulation” value (CD8+ T Lymphocytes) was “immunogenic response”.
In the case of LYSDILLKF (Influenza B virus) [NA32-40], the “immunogenicity” value (CD8+ T cells) is reported as “immunogenic”.
For “NFAMELPSF (Influenza B virus) [PB1503-511]”, the “CD8+ T cell responses (IFNγ) after single peptide re-stimulation” value (CD8+ T Lymphocytes) was “immunogenic response”.
With NMLSTVLGV [PB1413-421, NMLSTVLGV] the “additional low avidity CD8^+ T cells detected by Q115E staining” value (CD8^+ T cells [6]) was “no additional”, the “donors with detected tetramer^+ cells” value (tetramer^+ CD8^+ T cells [2]; [14]) was 10/11 and the “tetramer^+ of CD8^+ T cells, median” value (tetramer^+ CD8^+ T cells [2]; [14]) was 0.12%. The “donors with detected tetramer^+ cells” value (tetramer^+ CD8^+ T cells [2]; IBV-specific T cell lines) was 8/11, the “tetramer^+ of CD8^+ T cells, median” value (tetramer^+ CD8^+ T cells [2]; IBV-specific T cell lines) was 0.3% and the “increase from baseline to d14” value (tetramer^+CD8^+ T cells) was 19 fold. For the same sequence, the “phenotype of the majority of lung tetramer^+ CD8^+ T cells” value (human lung CD8^+ T cells; human lung) was “tissue-resident memory CD69^+CD103^+CD45RO^+ phenotype”, the “epitope-specific CD8^+ T cells detected within human lung CD8^+ T cells” value (human lung CD8^+ T cells) was 2/3 and the “memory CD8^+ T cell responses (IFN-γ production after peptide re-stimulation)” value [1] was “robust memory CD8^+ T cell responses”. For the same sequence, the EC50 (CD8^+ T cells [3]) was 0.89 nM, the “Tm (temperature required to unfold 50% of the protein) of pHLA-A*02:01 complex” value (HLA-A*02:01 [10]) was roughly 72 °C and the “healthy donors with detectable levels of epitope-specific CD8^+ T cells” value [12] was 80%. The “IFN-γ production towards peptide” value (A2/PB1413^+CD8^+ T cells) was “minimal”, the “magnitude of A2/PB1413-specific CD8^+ T cells” value (A2/PB1413^+CD8^+ T cells) was “markedly increased” and the “CD38^+/Ki-67^+ expression” value (tetramer^+ CD8^+ T cells [5]) was “increase”. The “increase in frequency of epitope-specific CD8^+ T cells in blood versus healthy donors” value (tetramer^+ CD8^+ T cells [5]) was 6 fold, the “increase in numbers of epitope-specific CD8^+ T cells versus healthy donors” value (tetramer^+ CD8^+ T cells [5]) was 2.6 fold and the “individuals” value (tetramer^+ CD8^+ T cells [5]) was 50% and 87.5%. For the same sequence, the “epitope-specific CD8^+ T cells after immunization” value (IBV) was “could not be detected”.
In the case of “RYGFVANF (Influenza A virus) [PB1498-505]”, the “in vivo CD8^+ T cell responses” value (CD8^+ T cells [13]) is reported as “targeted”.
In the case of “SFSFGGFTF (Influenza A virus) [PB2322-330]”, the “in vivo CD8^+ T cell responses” value (CD8^+ T cells [13]) is reported as “targeted”.
